In series [1] the test system is HeLa S3 human epithelioid cervical carcinoma cells. Description: Cellular uptake of fluorescein-labeled dendrimers, quantified by flow cytometry (FACS). The class given is cell-based. The following applies: for delivery to HeLa S3 cells: qualitative; for saturation of uptake into cells: with increasing transporter concentration; for Percentage of Cellular Uptake: 4 hours after treatment, 37° C., average of two experiments. On the procedure:
HeLa S3, human epithelioid cervical carcinoma cells of approximately 50% confluency were treated with concentrations varying from 250 nM to 50 μM of each of the molecular transporters 10, 11, 12, 13, and 41 at 37° C. The molecular transporters were directly added to the media (Dulbecco's modified eagle medium containing 10% fetal bovine serum and 1× antibiotic-antimycotic), and the delivery to the cells was visualized by microscopy.
Quantification of the uptake of the molecular transporter into the cells was performed by flow cytometry 4 hours after treatment. Adherent cells, grown on 6 well plates, were displaced with trypsin, after which the cells were washed with phosphate-buffered saline (PBS). The final cell pellet was collected by centrifugation and resuspended in PBS to a concentration of approximately 1×10^6 cells/mL. A minimum of 20,000 cell events were counted and analyzed using the FACSCalibur and CellQuest brand software (BD Biosciences, San Jose, Calif.).
For orientation: In flow cytometry, cells or beads pass a laser one at a time.

For another series, the system named is HeLa S3 cells. The experiment in a line: Sulphorhodamine B (SRB) cytotoxicity assay. In kind it is cell-based, human. Particulars: 4 hour treatment, concentrations up to 50 μM. On the procedure: The cells were treated with varying concentrations (250 nM to 50 μM) of compound 12 for 4 hours at 37° C. The cells were fixed with trichloroacetic acid and were then subsequently stained with SRB dye. The cells were washed with water, and the SRB-bound complexes were solubilized in Tris buffer. The absorbance at 572 nm was measured in each sample.
(In SRB staining, fixed cells bind dye roughly in proportion to their protein.)

Series [2] in a line: Solubility in water observed on isolation. In kind it is physicochemical. Particulars: isolated salt.

The record followed here is patent US20080221020A1, “Dendrimers as Molecular Translocators” (THE REGENTS OF THE UNIVERSITY OF CALIFORNIA, priority 2002, published 2008).

For the compound `Cl.Cl.Cl.Cl.Cl.Cl.Cl.Cl.Cl.Cl.Cl.Cl.N=C(N)NCCNC(=O)CCOCC(COCCC(=O)NCCNC(=N)N)(COCCC(=O)NCCNC(=N)N)NC(=O)CCNC(=O)CCOCC(COCCC(=O)NCCC(=O)NC(COCCC(=O)NCCNC(=N)N)(COCCC(=O)NCCNC(=N)N)COCCC(=O)NCCNC(=N)N)NC(=O)CCNC(=O)CCOCC(COCCC(=O)NCCC(=O)NC(COCCC(=O)NCCC(=O)NC(COCCC(=O)NCCNC(=N)N)(COCCC(=O)NCCNC(=N)N)COCCC(=O)NCCNC(=N)N)COCCC(=O)NCCC(=O)NC(COCCC(=O)NCCNC(=N)N)(COCCC(=O)NCCNC(=N)N)COCCC(=O)NCCNC(=N)N)NC(=O)CCNC(=S)Nc1ccc(-c2c3ccc(=O)cc-3oc3cc(O)ccc23)c(C(=O)O)c1` (stereo not shown) [Compound 13], in series [1], the “delivery to HeLa S3 cells” value was “excellent delivery” and the “saturation of uptake into cells” value was “approximately 100%”.
With `Cl.Cl.Cl.Cl.Cl.Cl.Cl.Cl.Cl.N=C(N)NCCNC(=O)CCOCC(COCCC(=O)NCCNC(=N)N)(COCCC(=O)NCCNC(=N)N)NC(=O)CCNC(=O)CCOCC(COCCC(=O)NCCC(=O)NC(COCCC(=O)NCCNC(=N)N)(COCCC(=O)NCCNC(=N)N)COCCC(=O)NCCNC(=N)N)(COCCC(=O)NCCC(=O)NC(COCCC(=O)NCCNC(=N)N)(COCCC(=O)NCCNC(=N)N)COCCC(=O)NCCNC(=N)N)NC(=O)CCNC(=S)Nc1ccc(-c2c3ccc(=O)cc-3oc3cc(O)ccc23)c(C(=O)O)c1` (stereo not shown) [Compound 12], in series [1], the “delivery to HeLa S3 cells” value is reported as “excellent delivery” and the “saturation of uptake into cells” value is recorded as “approximately 100%”. Further, in the series with HeLa S3 cells, the cell lysis result is “did not cause cell lysis” and the cytotoxic effect entry is reported as “no cytotoxic effect”.
In the case of `Cl.Cl.Cl.N=C(N)NCCNC(=O)CCOCC(COCCC(=O)NCCNC(=N)N)(COCCC(=O)NCCNC(=N)N)NC(=O)CCNC(=S)Nc1ccc(-c2c3ccc(=O)cc-3oc3cc(O)ccc23)c(C(=O)O)c1` (stereo not shown) [Compound 10], the “Percentage of Cellular Uptake” value in series [1] (250 nM) stood at 1.845%; in series [1] (500 nM) it was 2.89%; in series [1] (1 μM), 2.85%; in series [1] (5 μM) it was 12.44%; in series [1] (10 μM), 27.91%; in series [1] (25 μM), 59.15%. Besides, the “Percentage of Cellular Uptake” value in series [1] (50 μM) is recorded as 92.07%. Moreover, the “saturation of uptake into cells” value in series [1] was “approximately 100%”.
As for `N=C(N)NCCNC(=O)CCCCCNC(=O)CCNC(=S)Nc1ccc(-c2c3ccc(=O)cc-3oc3cc(O)ccc23)c(C(=O)O)c1` [Compound 41, 5-(3-{2-[5-(2-Guanidinoethylcarbamoyl)-pentylcarbamoyl]-ethyl}-thioureido)-2-(6-hydroxy-3-oxo-3H-xanthen-9-yl)-benzoic acid], the “Percentage of Cellular Uptake” value in series [1] (250 nM) stood at 1.95%; in series [1] (500 nM), 2.065%; in series [1] (1 μM) it was 3.025%; in series [1] (5 μM), 16.07%; in series [1] (10 μM) it was 32.4%; in series [1] (25 μM), 67.47%. In addition, the “Percentage of Cellular Uptake” value in series [1] (50 μM) came out at 86.71%. Also, in series [1], the “saturation of uptake into cells” value is on record as “approximately 100%”. Also, the “solubility in H2O” value in series [2] is listed as “barely soluble in H2O”.
`Cl.Cl.Cl.Cl.Cl.Cl.N=C(N)NCCNC(=O)CCOCC(COCCC(=O)NCCNC(=N)N)(COCCC(=O)NCCNC(=N)N)NC(=O)CCNC(=O)c1cc(C(=O)NCCNC(=O)CCNC(=S)Nc2ccc(-c3c4ccc(=O)cc-4oc4cc(O)ccc34)c(C(=O)O)c2)cc(C(=O)NCCC(=O)NC(COCCC(=O)NCCNC(=N)N)(COCCC(=O)NCCNC(=N)N)COCCC(=O)NCCNC(=N)N)c1` (stereo not shown) [Compound 11]: in series [1], the “delivery to HeLa S3 cells” value was “excellent delivery” and the “saturation of uptake into cells” value is “approximately 100%”.
